This test has as its target T1, ClpP (Staphylococcus aureus, UniProt Q2G036).
T1 construct: pET28a-clpP, purified from E. coli BL21(DE3)
The experiment in a line: biochemical. As to conditions: read-out: Relative inhibition rate (%).
T1 sequence (Q2G036 whole entry): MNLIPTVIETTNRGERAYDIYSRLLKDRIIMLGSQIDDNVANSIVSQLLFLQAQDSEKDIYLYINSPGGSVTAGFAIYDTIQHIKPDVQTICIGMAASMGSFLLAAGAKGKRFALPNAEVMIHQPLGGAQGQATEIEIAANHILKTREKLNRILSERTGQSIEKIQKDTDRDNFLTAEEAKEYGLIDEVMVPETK
Experimental: This property was exploited to screen the available laboratory library of small molecules for ClpP inhibitors. First, 10 μM ClpP and 64 μg/mL of the small molecule compound were added to a black opaque 96-well plate containing 100 μL of ClpP buffer (100 mM HEPES,100 mM NaCl) and incubated for 1 h at room temperature. Afterward, 100 μM Suc-LeuTyr-AMC (Cat number S1153, Sigma-Aldrich, St. Louis, MO, USA) was added to 96-well plates and incubated for 30 min at 32°C. Finally, the fluorescence values were detected by Infinite M200 (360 nm excitation/465 nm emission). […] Since the fluorescent substrate Suc-LY-AMC can be used to detect the activity of ClpP protein, we screened a library of natural products available in our laboratory.
`COc1c(O)cc(O)c2c(=O)cc(-c3ccccc3)oc12` [Wogonin]: the inhibition (usually how much of the control response was suppressed) at 64 µg/mL was determined as 35.4 ± 2.11%.

Consider `COc1cc(OC)c(CCC(=O)c2ccc(O)cc2)c(OC)c1` [Loureirin B], for which the inhibition at 64 µg/mL was 29.8 ± 2.24%.

On to `O=C(/C=C/c1ccc(O)c(O)c1)O[C@H]1[C@H](O)C[C@](O)(C(=O)O)C[C@H]1O` [Cryptochlorogenic acid], for which the inhibition at 64 µg/mL is 13.7 ± 3.15%.

Turning to `O=C1c2c(O)cc(O)cc2O[C@H](c2ccc(O)c(O)c2)[C@H]1O` [Taxifolin], the inhibition at 64 µg/mL was found to be 17.2 ± 1.2%.

`COc1ccc(-c2cc(=O)c3c(O)cc(O)cc3o2)cc1O` [Diosmetin]: the inhibition at 64 µg/mL came out at 6.1 ± 1.68%.

Consider `Oc1cc2c(cc1O)[C@@H]1c3ccc(O)c(O)c3OC[C@]1(O)C2` [Hematoxylin], for which the inhibition at 64 µg/mL stood at 23.9 ± 2.69%.

Regarding `O=c1c(O[C@@H]2O[C@H](CO)[C@@H](O)[C@H](O)[C@H]2O)c(-c2ccc(O)cc2)oc2cc(O)cc(O)c12` [Astragalin], the inhibition at 64 µg/mL was determined as 51.3 ± 1.73%.

Turning to `O=C1C[C@@H](c2ccccc2)Oc2cc(O)cc(O)c21` [Pinocembrin], the inhibition at 64 µg/mL was 33.7 ± 0.68%.

`O=c1cc(-c2ccc(O)c(O)c2)oc2cc(O)c([C@@H]3O[C@H](CO)[C@@H](O)[C@H](O)[C@H]3O)c(O)c12` [Isoorientin]: the inhibition at 64 µg/mL was 50.2 ± 1.58%.

Turning to `CC(C)=CCc1c(-c2ccc(O)cc2O)oc2c([C@H]3C=C(C)C[C@@H](c4ccc(O)cc4O)[C@@H]3C(=O)c3ccc(O)cc3O)c(O)cc(O)c2c1=O` [kuwanonG], the inhibition at 64 µg/mL worked out at 21.2 ± 2.56%.

For `C/C=C(/C)C(=O)O[C@H]1[C@@H](OC(C)=O)c2c(ccc3ccc(=O)oc23)OC1(C)C` [Praeruptorin A], the inhibition at 64 µg/mL turned out to be 37.8 ± 3.15%.

Take `O=C(O)[C@H]1O[C@@H](Oc2cc(O)c3c(=O)cc(-c4ccc(O)c(O)c4)oc3c2)[C@H](O)[C@@H](O)[C@@H]1O` [luteolin-7-glucuronide]: the inhibition at 64 µg/mL is 47.1 ± 3.25%.

For the compound `CC1=CC(=O)CC(C)(C)[C@@]1(O)/C=C/C(C)=C\C(=O)O` [Abscisic acid], the inhibition at 64 µg/mL was 0.8 ± 3.42%.

`O=C1O[C@H]2[C@@H]3OC(=O)c4cc(O)c(O)c(O)c4-c4c(O)c(O)c5oc(=O)c6c(c(O)c(O)c7oc(=O)c4c5c76)-c4c(cc(O)c(O)c4O)C(=O)OC[C@H]3OC(O)[C@@H]2OC(=O)c2cc(O)c(O)c(O)c2-c2c1cc(O)c(O)c2O` (mixture of isomers) [Punicalagin]: the inhibition at 64 µg/mL is 28.3 ± 3.67%.

For the compound `CC(C)=CC[C@@H](O)C1=CC(=O)c2c(O)ccc(O)c2C1=O` [Shikonin], the inhibition at 64 µg/mL was found to be 13.4 ± 1.54%.

On to `C[C@H]1CC[C@@]2(OC1)O[C@H]1C[C@H]3[C@@H]4CC[C@@H]5C[C@@H](O)CC[C@]5(C)[C@H]4CC[C@]3(C)[C@H]1[C@@H]2C` [Sarsasapogenin], for which the inhibition at 64 µg/mL was 7.8 ± 0.96%.

As to `O=C1C[C@@H](c2ccc(O)cc2)Oc2cc(O)cc(O)c21` [Naringenin], the inhibition at 64 µg/mL was found to be 8.2 ± 0.24%.

With `O=C1c2ccccc2C(=O)c2c(O)c(O)cc(O)c21` [Purpurin], the inhibition at 64 µg/mL amounted to 11.6 ± 2.51%.

For `C[C@@H]1O[C@@H](O[C@H]2[C@H](Oc3cc(O)c(C(=O)CCc4ccc(O)cc4)c(O)c3)O[C@H](CO)[C@@H](O)[C@@H]2O)[C@H](O)[C@H](O)[C@H]1O` [Naringin dihydrochalcone], the inhibition at 64 µg/mL came out at 20.6 ± 0.51%.

For the compound `C[C@@H]1O[C@@H](O[C@H]2C(=O)c3c(O)cc(O)cc3O[C@@H]2c2ccc(O)c(O)c2)[C@H](O)[C@H](O)[C@H]1O` [Astilbin], the inhibition at 64 µg/mL came to 9.1 ± 2.73%.

`CC(=O)OCC1=C[C@@H]2OC(=O)C3=CO[C@@H](O[C@@H]4O[C@H](CO)[C@@H](O)[C@H](O)[C@H]4O)[C@H]1[C@@H]32` [Asperuloside]: the inhibition at 64 µg/mL was 17.4 ± 2.31%.

On to `COc1cc(O)c2c(c1)O[C@H](c1ccc(O)cc1)CC2=O` [Sakuranetin], for which the inhibition at 64 µg/mL worked out at 3.9 ± 1.2%.

Turning to `COc1cc(O)c2c(=O)cc(-c3ccc(O)cc3)oc2c1` [Genkwanin], the inhibition at 64 µg/mL came out at 13.7 ± 0.58%.

`O=c1c(-c2ccc(O)cc2)coc2cc(O)cc(O)c12` [Genistein]: the inhibition at 64 µg/mL turned out to be 33.5 ± 0.65%.

On to `COc1ccc(CCC(=O)c2ccc(O)cc2)c(OC)c1` [Loureirin A], for which the inhibition at 64 µg/mL turned out to be 56.5 ± 2.47%.

Turning to `O=c1cc(-c2ccc(O)cc2)oc2c([C@@H]3O[C@H](CO)[C@@H](O)[C@H](O)[C@H]3O)c(O)c([C@@H]3O[C@H](CO)[C@@H](O)[C@H](O)[C@H]3O)c(O)c12` [Vicenin-2], the inhibition at 64 µg/mL amounted to 48.2 ± 2.26%.

`COc1ccc(-c2cc(=O)c3c(OC)c(OC)c(OC)c(OC)c3o2)cc1` [Tangeretin]: the inhibition at 64 µg/mL was found to be 41.2 ± 1.53%.

In the case of `O=Cc1ccc(O[C@@H]2O[C@H](CO)[C@@H](O)[C@@H](O)[C@H]2O)cc1` [Helicid], the inhibition at 64 µg/mL stood at 13.9 ± 3.22%.

For the compound `CC(C)=CCc1cc2c(cc1O)O[C@H](c1ccc(O)cc1)CC2=O` [Bavachin], the inhibition at 64 µg/mL is 21.7 ± 1.75%.

Consider `O=c1cc(-c2ccc(O)cc2)oc2cc(O)cc(O)c12` [Apigenin], for which the inhibition at 64 µg/mL was determined as 13.6 ± 0.52%.

As to `O=C(/C=C/c1ccc(O)c(O)c1)O[C@@H]1C[C@](O)(C(=O)O)C[C@@H](O)[C@H]1O` [Chlorogenic acid], the inhibition at 64 µg/mL was determined as 10.4 ± 1.12%.

Consider `COc1ccc(C(C)=O)c(O)c1` [Paeonol], for which the inhibition at 64 µg/mL stood at 26.7 ± 4.31%.

In the case of `O=C(CCCCc1ccc2c(c1)OCO2)N1CCCCC1` [Tetrahydropiperine], the inhibition at 64 µg/mL was 24.5 ± 3.67%.

Consider `C[C@@H]1O[C@@H](OC[C@H]2O[C@@H](Oc3cc(O)c4c(=O)cc(-c5ccc(O)cc5)oc4c3)[C@H](O[C@@H]3O[C@@H](C)[C@H](O)[C@@H](O)[C@H]3O)[C@@H](O)[C@@H]2O)[C@H](O)[C@H](O)[C@H]1O` [Ligustroflavone], for which the inhibition at 64 µg/mL came out at 26.6 ± 1.16%.

For the compound `COc1ccc(-c2cc(=O)c3c(O)c(OC)c(O)c(OC)c3o2)cc1` [Lysionotin], the inhibition at 64 µg/mL worked out at 59.1 ± 1.55%.

Turning to `COc1ccc(-c2cc(=O)c3c(O)c(OC)c(O[C@@H]4O[C@H](CO[C@@H]5O[C@@H](C)[C@H](O)[C@@H](O)[C@H]5O)[C@@H](O)[C@H](O)[C@H]4O)cc3o2)cc1` [Pectolinarin], the inhibition at 64 µg/mL was 28.3 ± 1.37%.

Turning to `COc1cc(-c2oc3cc(O)cc(O)c3c(=O)c2O[C@@H]2O[C@H](CO[C@@H]3O[C@@H](C)[C@H](O)[C@@H](O)[C@H]3O)[C@@H](O)[C@H](O)[C@H]2O[C@@H]2O[C@@H](C)[C@H](O)[C@@H](O)[C@H]2O)ccc1O` [Typhaneoside], the inhibition at 64 µg/mL was found to be 29.7 ± 0.72%.

`C=C(C)[C@@H]1CCC(C)=C[C@H]1c1c(O)cc(CCCCC)cc1O` [cannabidiol]: the inhibition at 64 µg/mL is 6.8 ± 2.41%.

Take `COc1cc(O)c2c(=O)c(O[C@@H]3O[C@H](CO)[C@@H](O)[C@H](O)[C@H]3O)c(-c3ccc(O[C@@H]4O[C@H](CO)[C@@H](O)[C@H](O)[C@H]4O)cc3)oc2c1` [Complanatuside]: the inhibition at 64 µg/mL was found to be 12.3 ± 0.47%.

With `CC(=O)O[C@H]1C(=O)[C@@]2(C)[C@H]([C@H](OC(=O)c3ccccc3)[C@]3(O)C[C@H](O)C(C)=C1C3(C)C)[C@]1(OC(C)=O)CO[C@@H]1C[C@@H]2O` [Baccatin III], the inhibition at 64 µg/mL turned out to be 7.2 ± 3.26%.

`COc1ccc(-c2oc3c(CC=C(C)C)c(O[C@@H]4O[C@H](CO)[C@@H](O)[C@H](O)[C@H]4O)cc(O)c3c(=O)c2O[C@@H]2O[C@@H](C)[C@H](O)[C@@H](O)[C@H]2O)cc1` [Icariin]: the inhibition at 64 µg/mL came out at 34.6 ± 1.54%.

For the compound `O=C(/C=C/c1ccc(O)cc1)OC[C@H]1O[C@@H](Oc2c(-c3ccc(O)cc3)oc3cc(O)cc(O)c3c2=O)[C@H](O)[C@@H](O)[C@@H]1O` [Tiliroside], the inhibition at 64 µg/mL was determined as 3.6 ± 0.17%.

As for `O=c1cc(-c2ccc(O)c(O)c2)oc2c([C@@H]3O[C@H](CO)[C@@H](O)[C@H](O)[C@H]3O)c(O)cc(O)c12` [Orientin], the inhibition at 64 µg/mL was found to be 61.4 ± 1.24%.

For `COC(=O)C1=CO[C@@H](O[C@@H]2O[C@H](CO)[C@@H](O)[C@H](O)[C@H]2O)[C@@H]2[C@@H](C)[C@@H](O)C[C@H]12` [Loganin], the inhibition at 64 µg/mL came out at 14.7 ± 3.56%.

Regarding `CCC1=C[C@@H]2CN3CCc4c([nH]c5ccccc45)[C@@](C(=O)OC)(C2)[C@@H]13` [Catharanthine], the inhibition at 64 µg/mL stood at 10.3 ± 1.62%.

As to `CC(C)c1ccc2c(c1O)CC[C@H]1C3=C(CC[C@]21C)C(=O)OC3` [Triptophenolide], the inhibition at 64 µg/mL was found to be 20.8 ± 0.61%.

Take `O=c1c(-c2ccccc2)coc2ccccc12` [Isoflavone]: the inhibition at 64 µg/mL worked out at 20.1 ± 0.73%.

As for `COc1ccc(-c2oc3c(CC=C(C)C)c(O[C@@H]4O[C@H](CO)[C@@H](O)[C@H](O)[C@H]4O)cc(O)c3c(=O)c2O[C@@H]2O[C@@H](C)[C@H](O)[C@@H](O)[C@H]2O[C@@H]2OC[C@@H](O)[C@H](O)[C@H]2O)cc1` [Epimedin B], the inhibition at 64 µg/mL was 29.1 ± 2.01%.

`COc1cc(-c2oc3cc(OC)c(OC)c(O)c3c(=O)c2OC)ccc1O` [Chrysosplenetin]: the inhibition at 64 µg/mL turned out to be 52.4 ± 0.36%.

`C=C1CC[C@@H]2[C@](C)(CO)[C@H](O)CC[C@@]2(C)[C@@H]1C/C=C1/C(=O)OC[C@H]1O` [Andrographolide]: the inhibition at 64 µg/mL was 15.8 ± 0.72%.

As for `C[C@@H]1CC[C@@]2(OC1)O[C@H]1C[C@H]3[C@@H]4CC[C@H]5C[C@@H](O)CC[C@]5(C)[C@H]4CC[C@]3(C)[C@H]1[C@@H]2C` [Tigogenin], the inhibition at 64 µg/mL stood at 12.3 ± 4.21%.

As to `C[C@@H]1O[C@@H](O[C@H]2[C@H](Oc3cc(O)c4c(=O)cc(-c5ccc(O)cc5)oc4c3)O[C@H](CO)[C@@H](O)[C@@H]2O)[C@H](O)[C@H](O)[C@H]1O` [Rhoifolin], the inhibition at 64 µg/mL is 46.7 ± 1.3%.

For `CC1(C)CCC2(CO)C(=C3C=CC4C5(C)CCC(OC6OC(COC7OC(CO)C(O)C(O)C7O)C(OC7OC(CO)C(O)C(O)C7O)C(O)C6O)CC5C(C)(CO)CC4(C)C3(C)CC2O)C1` (stereo not drawn) [Clinodiside A], the inhibition at 64 µg/mL was determined as 16 ± 2.78%.

On to `COc1ccc(/C=C/c2cc(O)cc(O)c2)cc1O` [Rhapontigenin], for which the inhibition at 64 µg/mL is 42.2 ± 2.89%.

Consider `Cc1coc2c1C(=O)C(=O)c1c-2ccc2c(C)cccc12` [Tanshinone I], for which the inhibition at 64 µg/mL turned out to be 12.3 ± 1.41%.

Consider `Oc1ccc2c(c1)OC[C@]1(O)Cc3cc(O)c(O)cc3[C@H]21` [Brazilin], for which the inhibition at 64 µg/mL came to 47.2 ± 2.57%.

Take `O=c1c(O[C@@H]2O[C@H](CO)[C@@H](O)[C@H](O)[C@H]2O[C@@H]2O[C@H](CO)[C@@H](O)[C@H](O)[C@H]2O)c(-c2ccc(O)c(O)c2)oc2cc(O)cc(O)c12` [Baimaside]: the inhibition at 64 µg/mL amounted to 25.1 ± 0.69%.
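Also: ClpP peptidase activity measured as fluorescence (ex 360 nm, em 465 nm) from cleavage of Suc-LY-AMC substrate at 100 µM, 30 min at 32°C.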
